Assay results reported in ChEMBL document CHEMBL4417636, “Small molecule inhibitors of pendrin ion exchange and pharmaceutical compositions” (2017).
The source made the active and inactive calls. The calls are words filed in the database; no cut-off is given here.

How the values were obtained:
Mus musculus [1] = assay: Potentiation of 20 mg/kg, ip furosemide-induced acute diuretic action in CD1 mouse assessed as increase in urinary Na+ excretion at 10 mg/kg, ip measured at 3 hrs relative to control; format: functional, organism-based
Mus musculus [2] = assay: Effect on renal function in C57B/6 mouse assessed as effect on blood gas values at 50 mg/kg, ip; format: ADME, organism-based; conditions: in vivo
Pendrin (Homo sapiens) [3] = target: T1, Pendrin (Homo sapiens) (UniProt O43511); assay: Inhibition of human pendrin expressed in FRT cells co-expressing EYFP-HIF assessed as reduction in pendrin-mediated C17SCN(-) exchange incubated for 10 mins by pH-sensitive fluorescent probe BCECF-AM based fluorescence assay relative to control; format: cell-based
T1 sequence (whole entry): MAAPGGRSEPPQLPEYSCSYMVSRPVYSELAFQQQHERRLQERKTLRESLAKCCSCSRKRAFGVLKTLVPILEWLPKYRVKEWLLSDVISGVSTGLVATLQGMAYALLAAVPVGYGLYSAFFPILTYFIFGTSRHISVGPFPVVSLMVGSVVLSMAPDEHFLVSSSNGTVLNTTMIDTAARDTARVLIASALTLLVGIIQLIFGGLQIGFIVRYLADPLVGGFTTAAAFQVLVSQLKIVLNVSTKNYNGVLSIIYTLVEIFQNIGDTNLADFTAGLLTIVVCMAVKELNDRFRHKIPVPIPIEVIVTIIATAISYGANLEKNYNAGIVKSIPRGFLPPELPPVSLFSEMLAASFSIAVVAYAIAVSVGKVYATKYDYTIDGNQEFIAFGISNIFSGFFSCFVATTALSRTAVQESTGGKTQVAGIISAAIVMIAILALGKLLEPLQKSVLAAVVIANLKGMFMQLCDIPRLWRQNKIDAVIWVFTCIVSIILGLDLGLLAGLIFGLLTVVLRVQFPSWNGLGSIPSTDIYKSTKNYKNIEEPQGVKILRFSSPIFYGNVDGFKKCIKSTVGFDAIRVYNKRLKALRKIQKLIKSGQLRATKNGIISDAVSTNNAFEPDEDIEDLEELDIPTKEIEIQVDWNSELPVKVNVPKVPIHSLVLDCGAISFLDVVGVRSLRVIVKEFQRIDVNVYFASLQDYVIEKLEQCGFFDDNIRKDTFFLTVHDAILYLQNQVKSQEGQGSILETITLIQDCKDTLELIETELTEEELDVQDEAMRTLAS

Pendrin (Mus musculus) = target: T2, Pendrin (Mus musculus) (UniProt Q9R155); assay: Inhibition of mouse pendrin expressed in FRT cells co-expressing YFP-HIF assessed as reduction in pendrin-mediated exchange of Cl(-) with SCN(-) by pH-sensitive fluorescent probe BCECF-AM based fluorescence assay relative to control; format: cell-based
T2 sequence (whole entry): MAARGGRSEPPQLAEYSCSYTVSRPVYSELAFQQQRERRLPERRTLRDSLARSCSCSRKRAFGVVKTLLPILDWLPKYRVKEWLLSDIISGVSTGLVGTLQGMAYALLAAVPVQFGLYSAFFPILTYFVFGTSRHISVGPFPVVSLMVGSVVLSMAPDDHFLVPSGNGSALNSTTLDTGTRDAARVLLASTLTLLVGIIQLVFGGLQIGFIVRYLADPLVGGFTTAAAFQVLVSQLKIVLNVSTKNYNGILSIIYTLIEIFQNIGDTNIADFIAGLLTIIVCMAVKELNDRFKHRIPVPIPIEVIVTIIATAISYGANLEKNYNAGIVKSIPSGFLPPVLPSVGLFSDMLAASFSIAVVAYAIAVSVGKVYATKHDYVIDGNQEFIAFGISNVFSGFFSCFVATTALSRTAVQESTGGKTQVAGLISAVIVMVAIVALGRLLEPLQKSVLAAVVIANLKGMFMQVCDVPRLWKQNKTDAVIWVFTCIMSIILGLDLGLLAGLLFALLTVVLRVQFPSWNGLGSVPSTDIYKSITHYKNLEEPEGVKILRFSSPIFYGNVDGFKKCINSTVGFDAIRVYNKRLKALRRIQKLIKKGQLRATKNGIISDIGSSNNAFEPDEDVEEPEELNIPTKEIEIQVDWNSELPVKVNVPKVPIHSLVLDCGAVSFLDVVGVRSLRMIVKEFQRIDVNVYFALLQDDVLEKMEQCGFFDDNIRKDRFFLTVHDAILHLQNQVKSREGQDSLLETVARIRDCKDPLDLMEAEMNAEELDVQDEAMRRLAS

Mus musculus [4] = assay: Effect on renal function in CD1 mouse assessed as effect on urine pH at 50 mg/kg, ip; format: ADME, organism-based; conditions: in vivo
Mus musculus [5] = assay: Effect on renal function in CD1 mouse assessed as effect on urinary salt excretion at 50 mg/kg, ip measured at 3 hrs; format: ADME, organism-based; conditions: in vivo
Mus musculus [6] = assay: Effect on renal function in CD1 mouse assessed as effect on blood gas values at 50 mg/kg, ip; format: ADME, organism-based; conditions: in vivo
Mus musculus [7] = assay: Effect on renal function in C57B/6 mouse assessed as effect on urine pH at 50 mg/kg, ip; format: ADME, organism-based; conditions: in vivo
Pendrin (Homo sapiens) [8] = target: T1, Pendrin (Homo sapiens); assay: Time dependent inhibition of human pendrin expressed in FRT cells co-expressing EYFP-HIF assessed as reduction in pendrin-mediated C17SCN(-) exchange by pH-sensitive fluorescent probe BCECF-AM based fluorescence assay relative to control; format: cell-based; conditions: TDE = time-dependent effect
Mus musculus [9] = assay: Potentiation of 20 mg/kg, ip bid for 8 days furosemide-induced chronic diuretic action in CD1 mouse assessed as increase in urinary Na+ excretion at 10 mg/kg, ip measured at 3 hrs relative to control; format: functional, organism-based
Mus musculus [10] = assay: Effect on renal function in C57B/6 mouse assessed as effect on urinary salt excretion at 50 mg/kg, ip measured at 3 hrs; format: ADME, organism-based; conditions: in vivo
Pendrin (Homo sapiens) [11] = target: T1, Pendrin (Homo sapiens); assay: Inhibition of human pendrin expressed in FRT cells co-expressing EYFP-HIF assessed as reduction in pendrin-mediated C17HCO3(-) exchange by measuring reduction in cytoplasmic alkalinization exchange at 25 uM by pH-sensitive fluorescent probe BCECF-AM based fluorescence assay relative to control; format: cell-based
Mus musculus [12] = assay: Potentiation of 20 mg/kg, ip bid for 8 days furosemide-induced chronic diuretic action in CD1 mouse assessed as increase in urinary K+ excretion at 10 mg/kg, ip measured at 3 hrs relative to control; format: functional, organism-based
Mus musculus [13] = assay: Potentiation of 20 mg/kg, ip bid for 8 days furosemide-induced chronic diuretic action in CD1 mouse assessed as effect on urine osmolarity at 10 mg/kg, ip measured at 3 hrs relative to control; format: functional, organism-based
Pendrin (Homo sapiens) [14] = target: T1, Pendrin (Homo sapiens); assay: Reversible inhibition of human pendrin expressed in FRT cells co-expressing EYFP-HIF assessed as reduction in pendrin-mediated C17SCN(-) exchange incubated for 10 mins measured after wash out by pH-sensitive fluorescent probe BCECF-AM based fluorescence assay relative to control; format: cell-based
Pendrin (Homo sapiens) [15] = target: T1, Pendrin (Homo sapiens); assay: Inhibition of human pendrin expressed in FRT cells co-expressing EYFP-HIF assessed as reduction in pendrin-mediated C17F exchange incubated for 10 mins by pH-sensitive fluorescent probe BCECF-AM based fluorescence assay relative to control; format: cell-based
Homo sapiens = species on record: Homo sapiens; assay: Effect on airway surface liquid pH in IL13-stimulated NHBE cells at 25 uM by pH-sensitive fluorophore BCECF based fluorescence based assay; format: functional, cell-based

inhibition (Pendrin (Homo sapiens) [3])	inhibition (Pendrin (Mus musculus))	inhibition (Pendrin (Homo sapiens) [8])	inhibition (Pendrin (Homo sapiens) [11])	inhibition (Pendrin (Homo sapiens) [14])	inhibition (Pendrin (Homo sapiens) [15])	Structure (SMILES)	Activity (Mus musculus [1])	Activity (Mus musculus [2])	Activity (Mus musculus [4])	Activity (Mus musculus [5])	Activity (Mus musculus [6])	Activity (Mus musculus [7])	Activity (Mus musculus [9])	Activity (Mus musculus [10])	Activity (Mus musculus [12])	Activity (Mus musculus [13])	Activity (Homo sapiens)
Dose-dependent effect	Dose-dependent effect	Tde	Active	Active	Dose-dependent effect	Cc1n[nH]c(-c2cc(S(=O)(=O)NC3CCCc4ccccc43)c(C)s2)c1C (stereo unspecified)	Active	Non-Toxic	Non-Toxic	Non-Toxic	Non-Toxic	Non-Toxic	Active	Non-Toxic	Active	inactive	–
Dose-dependent effect	–	Tde	Active	Active	Dose-dependent effect	Cn1nc(COc2cccc(F)c2)c2c1CCN(C(=O)Nc1ccc(Cl)cc1)C2	–	Non-Toxic	Non-Toxic	Non-Toxic	Non-Toxic	Non-Toxic	Active	Non-Toxic	Active	inactive	inactive
